For assay [1], the system named is diamondback moth (Plutella xylostella). Nature of the assay: Test A: control of diamondback moth on radish plant, foliar spray. It is filed as in vivo. Conditions: sprayed at 50 ppm, held 6 days. From the text:
For evaluating control of diamondback moth (Plutella xylostella) the test unit consisted of a small open container with a 12-14-day-old radish plant inside. This was pre-infested with about 50 neonate larvae that were dispensed into the test unit via corncob grits using a bazooka inoculator. The larvae moved onto the test plant after being dispensed into the test unit.
(§1) Test compounds were formulated using a solution containing 10% acetone, 90% water and 300 ppm X-77™ Spreader Lo-Foam Formula non-ionic surfactant containing alkylarylpolyoxyethylene, free fatty acids, glycols and isopropanol (Loveland Industries, Inc. Greeley, Colo., USA). The formulated compounds were applied in 1 mL of liquid through a SUJ2 atomizer nozzle with ⅛ JJ custom body (Spraying Systems Co. Wheaton, Ill., USA) positioned 1.27 cm (0.5 inches) above the top of each test unit. All experimental compounds in these tests were sprayed at 50 ppm, and the test was replicated three times. After spraying of the formulated test compound, each test unit was allowed to dry for 1 h and then a black, screened cap was placed on top. The test units were held for 6 days in a growth chamber at 25° C. and 70% relative humidity. Plant feeding damage was then visually assessed based on foliage consumed, and a pest mortality rating was also counted and calculated for each test unit.

In assay [2] the test system is western flower thrips (Frankliniella occidentalis). Kind of assay: Test E: control of western flower thrips on Soleil bean plant, contact and/or systemic. It is filed as in vivo. As to conditions: held 6 days. The protocol:
as §1
For evaluating control of the western flower thrips (Frankliniella occidentalis) through contact and/or systemic means, the test unit consisted of a small open container with a 5-7-day-old Soleil Bean plant inside. Test compounds were formulated and sprayed as described for Test A. All experimental compounds in these tests were sprayed at 250 or 50 ppm as noted, and the test was replicated three times. After spraying, the test units were allowed to dry for 1 h, 22-27 adult thrips were added to each unit and then a black, screened cap was placed on top. The test units were held for 6 days at 25° C. and 45-55% relative humidity. A mortality rating was assessed along with a plant damage rating for each test unit.

SMILES strings stand for the structures.

As for `CC(C)C(NC(=O)c1ccc(C2=NOC(c3cc(Cl)cc(Cl)c3)(C(F)(F)F)C2)c2ccccc12)C(=O)NCC(F)(F)F` (mixture of isomers) [Compound 2], the “levels of control efficacy (20% or less feeding damage or 80% or more mortality)” value in assay [1] is “very good to excellent”. Take `CC(O)CCNC(=O)c1ccc(C2=NOC(c3cccc(C(F)(F)F)c3)(C(F)(F)F)C2)c2ccccc12` (mixture of isomers) [Compound 44]: the “levels of control efficacy (20% or less feeding damage or 80% or more mortality)” value in assay [1], in assay [2] (sprayed at 50 ppm) and in assay [2] (sprayed at 250 ppm) was “very good to excellent” throughout.

As for `CCCNC(=O)C(C)NC(=O)c1ccc(C2=NOC(c3cc(C(F)(F)F)cc(C(F)(F)F)c3)(C(F)(F)F)C2)c2ccccc12` (mixture of isomers) [Compound 84], the “levels of control efficacy (20% or less feeding damage or 80% or more mortality)” value in assay [1], in assay [2] (sprayed at 50 ppm) and in assay [2] (sprayed at 250 ppm) was “very good to excellent” in each case. For the compound `CC(NC(=O)c1ccc(C2=NOC(c3cc(C(F)(F)F)cc(C(F)(F)F)c3)(C(F)(F)F)C2)c2ccccc12)C(=O)NCC(F)(F)F` (mixture of isomers) [Compound 94], in assay [1], the “levels of control efficacy (20% or less feeding damage or 80% or more mortality)” value is on record as “very good to excellent”. Still for that read-out and setting: then `CNC(=O)C(C)NC(=O)c1ccc(C2=NOC(c3cc(C(F)(F)F)cc(C(F)(F)F)c3)(C(F)(F)F)C2)c2ccccc12` (mixture of isomers) [Compound 95], with “very good to excellent”.

On to `CC(NC(=O)c1ccc(C2=NOC(c3cc(C(F)(F)F)cc(C(F)(F)F)c3)(C(F)(F)F)C2)c2ccccc12)C(=O)NCC(C)(C)C` (mixture of isomers) [Compound 97], for which the “levels of control efficacy (20% or less feeding damage or 80% or more mortality)” value in assay [2] (sprayed at 50 ppm) is recorded as “very good to excellent”.

Turning to `CC(NC(=O)CNC(=O)c1ccc(C2=NOC(c3cc(C(F)(F)F)cc(C(F)(F)F)c3)(C(F)(F)F)C2)c2ccccc12)C(F)(F)F` (mixture of isomers) [Compound 104], the “levels of control efficacy (20% or less feeding damage or 80% or more mortality)” value in assay [1] is “very good to excellent”. Take `CC(NC(=O)c1ccc(C2=NOC(c3cc(Cl)cc(C(F)(F)F)c3)(C(F)(F)F)C2)c2ccccc12)C(=O)NCC(F)(F)F` (mixture of isomers) [Compound 106]: the “levels of control efficacy (20% or less feeding damage or 80% or more mortality)” value in assay [1], in assay [2] (sprayed at 50 ppm) and in assay [2] (sprayed at 250 ppm) was “very good to excellent” each time.

Take `CC(C)NC(=O)C(C)NC(=O)c1ccc(C2=NOC(c3cc(Cl)cc(C(F)(F)F)c3)(C(F)(F)F)C2)c2ccccc12` (mixture of isomers) [Compound 107]: the “levels of control efficacy (20% or less feeding damage or 80% or more mortality)” value in assay [1], in assay [2] (sprayed at 50 ppm) and in assay [2] (sprayed at 250 ppm) was “very good to excellent” each time.

`CCCNC(=O)C(C)NC(=O)c1ccc(C2=NOC(c3cc(Cl)cc(C(F)(F)F)c3)(C(F)(F)F)C2)c2ccccc12` (mixture of isomers) [Compound 108]: the “levels of control efficacy (20% or less feeding damage or 80% or more mortality)” value in assay [1], in assay [2] (sprayed at 50 ppm) and in assay [2] (sprayed at 250 ppm) was “very good to excellent” each time. With `CNC(=O)C(C)NC(=O)c1ccc(C2=NOC(c3cc(Cl)cc(C(F)(F)F)c3)(C(F)(F)F)C2)c2ccccc12` (mixture of isomers) [Compound 109], the “levels of control efficacy (20% or less feeding damage or 80% or more mortality)” value in assay [1], in assay [2] (sprayed at 50 ppm) and in assay [2] (sprayed at 250 ppm) was “very good to excellent” each time. `CCNC(=O)C(C)NC(=O)c1ccc(C2=NOC(c3cc(Cl)cc(C(F)(F)F)c3)(C(F)(F)F)C2)c2ccccc12` (mixture of isomers) [Compound 110]: the “levels of control efficacy (20% or less feeding damage or 80% or more mortality)” value in assay [1], in assay [2] (sprayed at 50 ppm) and in assay [2] (sprayed at 250 ppm) was “very good to excellent” in each case.

For the compound `CC(C)CNC(=O)C(C)NC(=O)c1ccc(C2=NOC(c3cc(Cl)cc(C(F)(F)F)c3)(C(F)(F)F)C2)c2ccccc12` (mixture of isomers) [Compound 111], the “levels of control efficacy (20% or less feeding damage or 80% or more mortality)” value in assay [1], in assay [2] (sprayed at 50 ppm) and in assay [2] (sprayed at 250 ppm) was “very good to excellent” each time. Regarding `CC(NC(=O)c1ccc(C2=NOC(c3cc(Cl)cc(C(F)(F)F)c3)(C(F)(F)F)C2)c2ccccc12)C(=O)NCC(C)(C)C` (mixture of isomers) [Compound 112], the “levels of control efficacy (20% or less feeding damage or 80% or more mortality)” value in assay [1] and in assay [2] (sprayed at 250 ppm) was “very good to excellent” throughout. In the case of `CC(NC(=O)c1ccc(C2=NOC(c3cc(Cl)cc(C(F)(F)F)c3)(C(F)(F)F)C2)c2ccccc12)C(=O)NCC(C)(C)C` (mixture of isomers) [Compound 131], the “levels of control efficacy (20% or less feeding damage or 80% or more mortality)” value in assay [1] and in assay [2] (sprayed at 250 ppm) was “very good to excellent” throughout. `CC(C)(CO)NC(=O)c1ccc(C2=NOC(c3cc(Cl)cc(Cl)c3)(C(F)(F)F)C2)c2ccccc12` (racemic) [Compound 32]: the “levels of control efficacy (20% or less feeding damage or 80% or more mortality)” value in assay [1], in assay [2] (sprayed at 50 ppm) and in assay [2] (sprayed at 250 ppm) was “very good to excellent” each time. In the case of `O=C(NCCCO)c1ccc(C2=NOC(c3cccc(C(F)(F)F)c3)(C(F)(F)F)C2)c2ccccc12` (racemic) [Compound 42], the “levels of control efficacy (20% or less feeding damage or 80% or more mortality)” value in assay [1], in assay [2] (sprayed at 50 ppm) and in assay [2] (sprayed at 250 ppm) was “very good to excellent” in each case. For the compound `CC(C)(C)SCCNC(=O)c1ccc(C2=NOC(c3cccc(C(F)(F)F)c3)(C(F)(F)F)C2)c2ccccc12` (racemic) [Compound 57], the “levels of control efficacy (20% or less feeding damage or 80% or more mortality)” value in assay [1] is “very good to excellent”. On the same count and under the same terms, under `O=C(CCNC(=O)c1ccc(C2=NOC(c3cc(Cl)cc(Cl)c3)(C(F)(F)F)C2)c2ccccc12)NCC(F)(F)F` (stereo not shown) [Compound 9] stands “very good to excellent”; under `CC(C)(CO)CNC(=O)c1ccc(C2=NOC(c3cccc(C(F)(F)F)c3)(C(F)(F)F)C2)c2ccccc12` (stereo not shown) [Compound 61], “very good to excellent”. Regarding `O=C(CNC(=O)c1ccc(C2=NOC(c3cc(F)cc(F)c3)(C(F)(F)F)C2)c2ccccc12)NCC(F)(F)F` (stereo not shown) [Compound 73], the “levels of control efficacy (20% or less feeding damage or 80% or more mortality)” value in assay [1] and in assay [2] (sprayed at 250 ppm) was “very good to excellent” in each case.

In the case of `O=C(CNC(=O)c1ccc(C2=NOC(c3cccc(F)c3)(C(F)(F)F)C2)c2ccccc12)NCC(F)(F)F` (stereo not shown) [Compound 74], the “levels of control efficacy (20% or less feeding damage or 80% or more mortality)” value in assay [1] was “very good to excellent”. On the same count and under the same terms, under `CC(C)NC(=O)CNC(=O)c1ccc(C2=NOC(c3cc(F)cc(F)c3)(C(F)(F)F)C2)c2ccccc12` (stereo not shown) [Compound 75] stands “very good to excellent”; under `CC(C)NC(=O)CNC(=O)c1ccc(C2=NOC(c3cccc(F)c3)(C(F)(F)F)C2)c2ccccc12` (stereo not shown) [Compound 76], “very good to excellent”. For the compound `CSCCNC(=O)c1ccc(C2=NOC(c3cc(F)cc(F)c3)(C(F)(F)F)C2)c2ccccc12` (stereo not shown) [Compound 77], the “levels of control efficacy (20% or less feeding damage or 80% or more mortality)” value in assay [1] and in assay [2] (sprayed at 250 ppm) was “very good to excellent” each time. As to `CSCCNC(=O)c1ccc(C2=NOC(c3cccc(F)c3)(C(F)(F)F)C2)c2ccccc12` (stereo not shown) [Compound 78], in assay [1], the “levels of control efficacy (20% or less feeding damage or 80% or more mortality)” value is reported as “very good to excellent”. For the compound `CS(=O)(=O)CCNC(=O)c1ccc(C2=NOC(c3cc(F)cc(F)c3)(C(F)(F)F)C2)c2ccccc12` (stereo not shown) [Compound 80], the “levels of control efficacy (20% or less feeding damage or 80% or more mortality)” value in assay [1] and in assay [2] (sprayed at 250 ppm) was “very good to excellent” each time.

Source of the values: patent US8410153B2, “Naphthalene isoxazoline invertebrate pest control agents” (E.I. du Pont de Nemours and Company, priority 2007, dated 2013).
